# Target: T1, rat liver Golgi α-mannosidase II (Rattus norvegicus, UniProt P28494)
# T1 construct: The assay for rat liver Golgi α-mannosidase II; from tissue; host or cells: rat liver (Golgi)
# T1 sequence (P28494 1-1148): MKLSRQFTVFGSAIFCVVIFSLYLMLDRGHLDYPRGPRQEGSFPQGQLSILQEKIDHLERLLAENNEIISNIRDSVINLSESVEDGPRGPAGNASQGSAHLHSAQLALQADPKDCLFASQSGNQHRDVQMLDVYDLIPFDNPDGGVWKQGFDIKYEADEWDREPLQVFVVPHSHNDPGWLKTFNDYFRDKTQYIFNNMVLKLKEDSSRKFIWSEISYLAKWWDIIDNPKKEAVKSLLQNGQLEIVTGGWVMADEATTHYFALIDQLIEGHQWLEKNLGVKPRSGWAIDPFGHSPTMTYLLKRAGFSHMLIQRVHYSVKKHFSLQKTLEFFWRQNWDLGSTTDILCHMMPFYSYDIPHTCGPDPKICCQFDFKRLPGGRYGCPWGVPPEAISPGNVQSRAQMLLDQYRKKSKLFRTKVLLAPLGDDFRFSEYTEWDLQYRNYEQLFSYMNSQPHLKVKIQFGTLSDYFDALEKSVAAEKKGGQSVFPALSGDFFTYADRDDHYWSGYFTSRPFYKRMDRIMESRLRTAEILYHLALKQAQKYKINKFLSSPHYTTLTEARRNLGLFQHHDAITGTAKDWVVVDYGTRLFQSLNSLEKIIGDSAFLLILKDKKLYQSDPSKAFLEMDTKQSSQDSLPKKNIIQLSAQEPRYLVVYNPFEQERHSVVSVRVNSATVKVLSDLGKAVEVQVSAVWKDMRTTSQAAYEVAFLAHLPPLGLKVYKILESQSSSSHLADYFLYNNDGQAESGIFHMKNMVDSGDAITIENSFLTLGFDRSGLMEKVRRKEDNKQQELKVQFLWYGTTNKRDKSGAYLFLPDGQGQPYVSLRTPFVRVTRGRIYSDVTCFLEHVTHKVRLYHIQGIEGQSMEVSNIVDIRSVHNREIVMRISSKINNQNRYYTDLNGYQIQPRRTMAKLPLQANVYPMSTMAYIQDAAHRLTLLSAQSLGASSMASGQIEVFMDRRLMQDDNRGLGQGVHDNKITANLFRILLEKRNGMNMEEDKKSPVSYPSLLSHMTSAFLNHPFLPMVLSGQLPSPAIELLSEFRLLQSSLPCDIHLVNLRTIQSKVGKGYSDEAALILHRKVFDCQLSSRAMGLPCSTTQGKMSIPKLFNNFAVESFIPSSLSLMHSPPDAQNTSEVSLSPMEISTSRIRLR
# Assay: Rat liver Golgi α-mannosidase II assay
# Format: biochemical
# Details: para-nitrophenyl α-mannose, pH 5.6; read-out: IC50 ManII
# Experimental: The assay for rat liver Golgi α-mannosidase II contained 5 mM para-nitrophenylα-mannose, 40 mM sodium acetate pH 5.6, plus serially diluted test compouunds and mannosidase enzyme in a total volume of 50 ul, in 96 well plates. Plates were incubated 45 min at 37° C., then the reaction was stopped with 50 μl of 0.5M sodium carbonate. […] The lysosomal mannosidase was done in the same procedure but with 40 mM sodium acetate buffer pH 5.0. The numbers in the table are IC50 values in μM for inhibition of mannosidase activity.
compound,measurement,value
"O[C@H]1[C@H]2[C@H](O)CCCN2C[C@H]1O [SW, Swainsonine, reference compound]",IC50,100 nM

# — patent US5773239A, “Mannosidase inhibitors, process for their preparation and their use as therapeutic agents” (Mount Sinai Hospital Corporation., priority 1995, dated 1998)
